Patent publication US20030065039A1, “Biologically active 1,3-bis-aromatic-prop-2-en-1-ones, 1,3-bis-aromatic-propan-1-ones, and 1,3-bis-aromatic-prop-2-yn-1-ones” (Statens Serum Institute, priority 1997, published 2003)
Converted amounts (≈) assume the structure as drawn. Like-named read-outs stand apart in the source and are kept apart here.

Tests used:
Type in all cases: cell-based
Helicobacter pylori = experiment: Helicobacter species Assay (agar plate, MIC); conditions: for MIC: 20 strains of H. pylori, agar plate, 72 hours; for No. strains inhibited/No. strains tested: at the MIC of the same line
Experimental: 20 strains of Helicobacter pylori were used in an agar plate assay. The compounds were incorporated in the agar plates at different concentrations as described in the examples and were then inoculated with different strains of Helicobacter pylori followed by incubation in a microaerophilic atmosphere at 37° C. for 72 hours. The number of colony-forming units (CFU) were counted after the incubation period. The MIC values were determined as the minimal concentration required to inhibit growth of the bacteria.
(§1) Stock solutions were made at a concentration of 1 mg/ml by dissolving 1 mg of each compound in 100 μl DMSO (dimethylsulfoxide) followed by addition of 900 μl of heat-inactivated fetal claf serum (HFCS). These stock solutions were diluted with HFCS to make solutions having the following concentrations: 320 μg/ml, 160 μg/ml, 80 μg/ml, 40 μg/ml and 20 μg/ml. Dilution rows were made with 3 ml aliquots in vials containing the compounds in the following final test concentrations: 16 μg/ml, 8 μg/ml, 4 μg/ml, 2 μg/ml and 1 μg/ml. As control was used DMSO-HFCS containing an amount of DMSO equal to the amount of test compound in the solution with 320 μg/ml compound.
Bacteria: 20 strains of Helicobacter pylori were used in an agar plate assay. The compounds were incorporated in the agar plates at different concentrations and then they were inoculated with different strains of Helicobacter pylori followed by incubation at microaerophilic atmosphere at 37° C. in 72 hours. The number of colony-forming units (CFU) were counted after the incubation period. The MIC values were determined as the minimal concentration required to inhibit growth of the bacteria.
as §1, with “concentrations: 2560 μg/ml, 1280 μg/ml, 640 μg/ml,” for “concentrations:”, “160 µg/ml and” for “160 μg/ml,”, “80” for “80 μg/ml, 40 μg/ml and 20”, “concentrations: 128 μg/ml, 64 μg/ml, 32 μg/ml, 12” for “concentrations: 16”, “8” for “8 μg/ml, 4 μg/ml, 2”, “and 4” for “and 1”
Bacteria: 20 strains of Helicobacter pylori were used in an agar plate assay. The same method as described above under Experiment A was employed and MIC values were determined.

Vero cell cultures = experiment: Cytotoxicity in Vero cell cultures; conditions: Vero cells; values given as fractions, footnote a not given
Description: In the following is reported the results from a Vero cell culture infected with different viruses. The cell culture used as well as the methods applied are well known to a person skilled in the art.

[1] = tested on: human embryonic lung (HEL) cells; experiment: Cytotoxicity in human embryonic lung (HEL) cells; conditions: HEL cell growth reduced by 50%; values given as fractions
Plasmodium falciparum = Plasmodium falciparum Assay; conditions: 3-H-hypoxanthine incorporation, 48 hours, read-out: Plasmodium IC50 ± SD
How it was run: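 Parasitized erythrocytes (~1% parasitemia, 5×10^8/ml) cultured 48 h in RPMI with test compound, with 3H-hypoxanthine added for the last 24 h. Growth inhibition read as 3H-hypoxanthine incorporation into parasite DNA by liquid scintillation; uninfected and untreated infected cultures run in parallel.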

[2] = Helicobacter pylori, read-out: MIC

In the case of `C=CC(C)(C)c1cc(/C=C/C(=O)c2ccc(O)cc2)c(OC)cc1O` [Licochalcone A], the “growth of the strains of H. pylori (FIGS. 1 and 2)” value (shortened to “growth of the strains of H. pylori”) (Helicobacter pylori) is reported as “inhibited the growth of all the strains”, the “strains that gave a MIC value equal to or less than 16 μg/ml” value (Helicobacter pylori; 20 strains) is reported as 20 out of 20 and the MIC (Helicobacter pylori) is reported as 16 µg/mL (≈ 47.3 µM). The “No. strains inhibited/No. strains tested” value (Helicobacter pylori) was 20/20, the “Minimum Cytotoxic Concentration” value (Vero cell cultures) was <1/100 and the “Cytotoxicity CC50” value [1] was 1/600. For the same compound, the IC50 (Plasmodium falciparum) was 5.6 µM.

For `COc1cc(/C=C/C(=O)c2ccc(C3CCCCC3)cc2)cc(OC)c1` [PH104, 3,5-dimethoxy-4′-cyclohexylchalcone], the “growth of the strains of H. pylori” value (Helicobacter pylori) was “inhibited the growth of all the strains”, the MIC (Helicobacter pylori; [2]) was 64 µg/mL (≈ 183 µM) and the “No. strains inhibited/No. strains tested” value (Helicobacter pylori) was 15/20. The IC50 (Plasmodium falciparum; Plasmodium falciparum) was 15 µM.

With `COc1cc(/C=C/C(=O)c2ccc([N+](=O)[O-])cc2)cc(OC)c1` [PH105, 4′-nitro-3,5-dimethoxychalcone] the MIC (Helicobacter pylori; [2]) was 16 µg/mL (≈ 51.1 µM), the “strains of Helicobacter pylori inhibited” value (Helicobacter pylori; at a concentration of 16 μg/ml, 20 strains) was 12 out of 20 and the “No. strains inhibited/No. strains tested” value (Helicobacter pylori) was 12/20.

For `COc1cc(/C=C/C(=O)c2ccccc2F)cc(OC)c1` [PH135, 2′-fluoro-3,5-dimethoxychalcone], the “growth of the strains of H. pylori” value (Helicobacter pylori) was “inhibited the growth of all the strains”, the MIC (Helicobacter pylori; [2]) was 32 µg/mL (≈ 112 µM) and the “No. strains inhibited/No. strains tested” value (Helicobacter pylori) was 20/20. For the same compound, the IC50 (Plasmodium falciparum; Plasmodium falciparum) was 8.7 µM.

For `COc1cc(/C=C/C(=O)c2cccc(F)c2)cc(OC)c1` [PH136, 3′-fluoro-3,5-dimethoxychalcone], the “growth of the strains of H. pylori” value (Helicobacter pylori) was “inhibited the growth of all the strains”, the MIC (Helicobacter pylori; [2]) was 32 µg/mL (≈ 112 µM) and the “No. strains inhibited/No. strains tested” value (Helicobacter pylori) was 15/20. The IC50 (Plasmodium falciparum; Plasmodium falciparum) was 8.1 µM.

`C=CCOc1ccc(C(=O)/C=C/c2cc(OC)cc(OC)c2)cc1` [SBC-35ma, 3,5-dimethoxy-4′-allyloxychalcone] was tested, and the “Minimum Cytotoxic Concentration” value (Vero cell cultures) was <1/100 and the “Cytotoxicity CC50” value [1] was <1/60.
